In patent US5137811A, “Method for diagnosing periodontal diseases with a substrate specific for aminopeptidase activity of periodontopathic bacteria” (Sunstar Kabushiki Kaisha, priority 1986, dated 1992):
Where a SMILES comes first, the peptide text is derived from it. The star is where a group is joined. βNA = c1ccc2cc(N*)ccc2c1; Cbz = O=C(OCc1ccccc1)*; Bz = O=C(c1ccccc1)*

Key:
Fusobacterium nucleatum = assay: Hydrolytic activity of oral anaerobe cell suspension on aminopeptidase substrates (Experiment 1); assay type: cell-based; settings: three strains, substrate 0.2 mM, pH 7.0, 37° C., 60 minutes, Table 1
Description: (§1) Oral anaerobes, i.e., four strains of Treponema denticola, five strains of B. gingivalis, four strains of Actinobacillus actinomycetemcomitans, four strains of Capnocytophaga sp. and three strains of Fusobacterium nucleatum were tested for hydrolytic activity to the substrate of aminopeptidase enzyme as follows.
(§2) The strains of Treponema were anaerobically cultivated using TYGVS media at 37° C. for 7 days, while other bacterial strains were cultivated using brain heart infusion broth at 37° C. for 48 to 72 hours. Each culture was diluted to obtain a bacterial cell suspension, the absorption at 660 nm of which was 1.0.
(§3) Substrate compounds for aminopeptidase enzyme having various color developing groups derived from β-naphthylamine were dissolved in 0.1M Tris-HCl buffer (pH 7.0) at the concentration of 0.2 mM to obtain substrate solutions.
(§4) To the substrate solution (1.5 ml) was added the above cell suspension (0.3 ml) and reacted at 37° C. for 60 minutes. After completion of the reaction, a coloring reagent [prepared by dissolving diazonium salt of Garnet GBC in 1M acetate buffer (containing 10% Tween 20, pH: 4.2) at the concentration of 0.5 mg/ml] was added and, after 15 minutes, the absorption at 525 nm was determined with a spectrophotometer.
(§5) On the basis of the average amount of released β-naphthylamine in each strain, the hydrolytic activity was expressed as follows: […]

Treponema denticola = assay: as above; assay type: cell-based; settings: four strains, substrate 0.2 mM, pH 7.0, 37° C., 60 minutes, Table 1
Description: as §1, §2, §3, §4, §5

Capnocytophaga sp. = assay: as above; assay type: cell-based; settings: four strains, substrate 0.2 mM, pH 7.0, 37° C., 60 minutes, Table 1
Description: as §1, §2, §3, §4, §5

[1] = test system: Actinobacillus actinomycetemcomitans; assay: as above; assay type: cell-based; settings: four strains, substrate 0.2 mM, pH 7.0, 37° C., 60 minutes, Table 1
Description: as §1, §2, §3, §4, §5

Bacteroides gingivalis = assay: as above; assay type: cell-based; settings: five strains, substrate 0.2 mM, pH 7.0, 37° C., 60 minutes, Table 1
Description: as §1, §2, §3, §4, §5

[2] = test system: periodontopathic bacteria specific aminopeptidase activity; assay: Hydrolytic activity of gingival crevicular fluid specimens, visually evaluated (Experiment 4); assay type: biochemical; set-up: key: -: orange; +: dark orange; ++: brown; +++: dark brown
Description: as §3, §4
Specimens of gingival crevicular fluid were collected with paper points from five subjects who were considered to be healthy from their clinical state, six subjects with gingivitis and six subjects with periodontitis. Each specimen was dispersed in Ringer's solution (1.5 ml), and the relative amount of spirochete to total bacteria: [formula] was determined with a phase contrast microscope. Further, the Ringer's solution (0.3 ml) was tested for hydrolytic activity using the substrate solution prepared in the same manner as described in Experiment 1. As substrates, there were used compounds of the formula [1], i.e., N-benzoylvalyl-glycyl-arginine-β-naphthylamide (BzVGR) and N-carbobenzoxy-valyl-glycyl-arginine-β-naphthylamide (CxVGR) were used.
In table 4, hydrolytic activity was visually evaluated and expressed as follows: […]

Row | SMILES | hydrolytic activity (average amount of released β-naphthylamine) (Fusobacterium nucleatum) | hydrolytic activity (average amount of released β-naphthylamine) (Treponema denticola) | hydrolytic activity (average amount of released β-naphthylamine) (Capnocytophaga sp.) | hydrolytic activity (average amount of released β-naphthylamine) [1] | hydrolytic activity (average amount of released β-naphthylamine) (Bacteroides gingivalis) | also measured
1 | N=C(N)NCCC[C@H](NC(=O)[C@@H](N)CCCCN)C(=O)Nc1ccc2ccccc2c1 [KR, lysyl-arginine-β-naphthylamide] (H-Lys-Arg-βNA) | - (release amount<5 nmol/ml) | + (10 ≤release amount<20 nmol/ml) | + (10 ≤release amount<20 nmol/ml) | - (release amount<5 nmol/ml) | ++ (20 ≤release amount<40 nmol/ml) | 
2 | N=C(N)NCCC[C@H](N)C(=O)NCC(=O)Nc1ccc2ccccc2c1 [RG, arginyl-glycine-β-naphthylamide, reference compound] (H-Arg-Gly-βNA) | - (release amount<5 nmol/ml) | - (release amount<5 nmol/ml) | + (10 ≤release amount<20 nmol/ml) | - (release amount<5 nmol/ml) | ++ (20 ≤release amount<40 nmol/ml) | 
3 | N=C(N)NCCC[C@H](NC(=O)OCc1ccccc1)C(=O)N[C@@H](CCCNC(=N)N)C(=O)Nc1ccc2ccccc2c1 [CxRR, N-carbobenzoxy-arginyl-arginine-β-naphthylamide] (Cbz-Arg-Arg-βNA) | - (release amount<5 nmol/ml) | + + | - (release amount<5 nmol/ml) | - (release amount<5 nmol/ml) | +++ (release amount≥40 nmol/ml) | 
4 | NCC(=O)N[C@@H](Cc1ccccc1)C(=O)Nc1ccc2ccccc2c1 [GF, glycyl-phenylalanine-β-naphthylamide, reference compound] (H-Gly-Phe-βNA) | - (release amount<5 nmol/ml) | - (release amount<5 nmol/ml) | ± (5 ≤release amount<10 nmol/ml) | - (release amount<5 nmol/ml) | ++ (20 ≤release amount<40 nmol/ml) | 
5 | N=C(N)NCCC[C@H](NC(=O)[C@H](Cc1ccccc1)NC(=O)OCc1ccccc1)C(=O)Nc1ccc2ccccc2c1 [CxFR, N-carbobenzoxy-phenylalanyl-arginine-β-naphthylamide] (Cbz-Phe-Arg-βNA) | - (release amount<5 nmol/ml) | +++ (release amount≥40 nmol/ml) | - (release amount<5 nmol/ml) | - (release amount<5 nmol/ml) | +++ (release amount≥40 nmol/ml) | 
6 | N=C(N)NCCC[C@H](NC(=O)[C@@H](N)Cc1ccccc1)C(=O)Nc1ccc2ccccc2c1 [FR, phenylalanyl-arginine-β-naphthylamide] (H-Phe-Arg-βNA) | - (release amount<5 nmol/ml) | + (10 ≤release amount<20 nmol/ml) | ± (5 ≤release amount<10 nmol/ml) | - (release amount<5 nmol/ml) | + (10 ≤release amount<20 nmol/ml) | 
7 | NCCCC[C@H](NC(=O)CN)C(=O)Nc1ccc2ccccc2c1 [GK, glycyl-lysine-β-naphthylamide, reference compound] (H-Gly-Lys-βNA) | - (release amount<5 nmol/ml) | - (release amount<5 nmol/ml) | + (10 ≤release amount<20 nmol/ml) | - (release amount<5 nmol/ml) | + (10 ≤release amount<20 nmol/ml) | 
8 | N=C(N)NCCC[C@H](NC(=O)[C@H](Cc1ccccc1)NC(=O)[C@@H]1CCCN1)C(=O)Nc1ccc2ccccc2c1 [PFR, prolyl-phenylalanyl-arginine-β-naphthylamide] (H-Pro-Phe-Arg-βNA) | - (release amount<5 nmol/ml) | +++ (release amount≥40 nmol/ml) | - (release amount<5 nmol/ml) | - (release amount<5 nmol/ml) | +++ (release amount≥40 nmol/ml) | 
9 | CC(C)[C@H](NC(=O)c1ccccc1)C(=O)NCC(=O)N[C@@H](CCCNC(=N)N)C(=O)Nc1ccc2ccccc2c1 [BzVGR, N-benzoyl-valyl-glycyl-arginine-β-naphthylamide] (Bz-Val-Gly-Arg-βNA) | - (release amount<5 nmol/ml) | +++ (release amount≥40 nmol/ml) | - (release amount<5 nmol/ml) | - (release amount<5 nmol/ml) | +++ (release amount≥40 nmol/ml) | hydrolytic activity, visually evaluated ([2]; Gingivitis subject 1 (spirochete 7.3 %)): +; hydrolytic activity, visually evaluated ([2]; Gingivitis subject 2 (spirochete 16.7 %)): +; hydrolytic activity, visually evaluated ([2]; Gingivitis subject 3 (spirochete 20.5 %)): ++; hydrolytic activity, visually evaluated ([2]; Gingivitis subject 4 (spirochete 6.8 %)): -; hydrolytic activity, visually evaluated ([2]; Gingivitis subject 5 (spirochete 7.3 %)): -; hydrolytic activity, visually evaluated ([2]; Gingivitis subject 6 (spirochete 14.4 %)): +; hydrolytic activity, visually evaluated ([2]; Healthy subject 1 (spirochete 0.1 %)): -; hydrolytic activity, visually evaluated ([2]; Healthy subject 2 (spirochete 2.5 %)): +; hydrolytic activity, visually evaluated ([2]; Healthy subject 3 (spirochete 1.1 %)): -; hydrolytic activity, visually evaluated ([2]; Healthy subject 4 (spirochete 0.6 %)): -; hydrolytic activity, visually evaluated ([2]; Healthy subject 5 (spirochete 1.3 %)): -; hydrolytic activity, visually evaluated ([2]; Periodontitis subject 1 (spirochete 45.2 %)): +++; hydrolytic activity, visually evaluated ([2]; Periodontitis subject 2 (spirochete 30.3 %)): +++; hydrolytic activity, visually evaluated ([2]; Periodontitis subject 3 (spirochete 34.6 %)): +++; hydrolytic activity, visually evaluated ([2]; Periodontitis subject 4 (spirochete 21.2 %)): +++; hydrolytic activity, visually evaluated ([2]; Periodontitis subject 5 (spirochete 40.3 %)): +++; hydrolytic activity, visually evaluated ([2]; Periodontitis subject 6 (spirochete 35.1 %)): +++
10 | N=C(N)NCCC[C@H](NC(=O)[C@@H](N)CCCNC(=N)N)C(=O)Nc1ccc2ccccc2c1 [RR, arginyl-arginine-β-naphthylamide] (H-Arg-Arg-βNA) | - (release amount<5 nmol/ml) | +++ (release amount≥40 nmol/ml) | + (10 ≤release amount<20 nmol/ml) | - (release amount<5 nmol/ml) | + (10 ≤release amount<20 nmol/ml) | 
11 | N=C(N)NCCC[C@H](NC(=O)[C@H](CCCCN)NC(=O)OCc1ccccc1)C(=O)Nc1ccc2ccccc2c1 [CxKR, N-carbobenzoxy-lysyl-arginine-β-naphthylamide] (Cbz-Lys-Arg-βNA) | - (release amount<5 nmol/ml) | ++ (20 ≤release amount<40 nmol/ml) | - (release amount<5 nmol/ml) | - (release amount<5 nmol/ml) | ++ (20 ≤release amount<40 nmol/ml) | 
